Assay results as given in patent US4931471A, “Amides of paramethoxycinnamic and utilization thereof as solar filters” (priority 1985, dated 1990).

Columns and labels:
[1] = UV spectrum (absorption maximum); format: physicochemical
[2] = Degradation in rat skin homogenate (TLC after 12 h); format: in vitro ADME
Procedure: The hypodermis was carefully detached by means of a razor blade. The remaining epidermis and dermis were cut into thin lamellae and placed in a conical flask containing 20 ml of phosphate buffer of pH 8. The lamellae were then ground in a Potter mill with large teeth so as to prevent the proteases from being released from the cell nuclei. The preparation obtained was centrifuged at 25,000 rpm and the supernatant was removed. 10 μmol of the test product were suspended in 4 ml of the homogenate. After 12 h, the solutions were analyzed by TLC.
When using rat skin homogenates such as those described above, no degradation of the amides according to Examples I and III to XI was observed, whereas the amide of Example II undergoes 30% degradation.

[3] = tested on: esterases in the skin and plasma; conditions: loss of UV-B filtering power on the skin; cited from earlier work
[4] = man; cited from earlier work

| UV spectrum: maximum ([1]; CHCl3) [nm] | Molecule | further results |
| --- | --- | --- |
| 295 | COc1ccc(C=CC(=O)N2CCCCC2)cc1 [Example I, N-(4-Methoxycinnamoyl)piperidine] | – |
| 309 | COC(=O)[C@H](CCSC)NC(=O)C=Cc1ccc(OC)cc1 [Example II, Methyl ester of N-(4-methoxycinnamoyl)-L-methionine] | degradation (in words) [2]: slightly degraded; metabolised at 12 h ([2]; pH 8): 30% |
| 306 | COC(=O)[C@H](CSC)NC(=O)C=Cc1ccc(OC)cc1 [Example V, Methyl ester of S-methyl-N-(4-methoxycinnamoyl)-L-cysteine] | – |
| 310 | COC(=O)[C@H](CSCc1ccccc1)NC(=O)C=Cc1ccc(OC)cc1 [Example VI, Methyl ester of S-benzyl-N-(4-methoxycinnamoyl)-L-cysteine] | – |
| 312 | COC(=O)[C@H](Cc1ccc(O)cc1)NC(=O)C=Cc1ccc(OC)cc1 [Example VII, Methyl ester of N-(4-methoxycinnamoyl)-L-tyrosine] | – |
| – | COC(=O)C=Cc1cn(C(=O)C=Cc2ccc(OC)cc2)cn1 [Example VIII, Methyl ester of (4-methoxycinnamoyl)imidazol-4-ylprop-2-enoic acid (amide of paramethoxycinnamic acid and the methyl ester of urocanic acid)] | UV spectrum: maximum ([1]; 100° ethanol): 350 nm |
| 314 | COC(=O)[C@H](CS)NC(=O)C=Cc1ccc(OC)cc1 [III, Methyl ester of N-(4-methoxycinnamoyl)-L-cysteine] | – |
| 309 | COC(=O)[C@H](CSSC[C@H](NC(=O)C=Cc1ccc(OC)cc1)C(=O)OC)NC(=O)C=Cc1ccc(OC)cc1 [IV, Dimethyl ester of N,N'-di(4-methoxycinnamoyl)-L-cystine] | – |
| – | CCCCC(CC)COC(=O)C=Cc1ccc(OC)cc1 (stereo not drawn) [Ibis] | hydrolysis under the influence of the esterases in the skin and plasma [3]: hydrolyzes to p-methoxycinnamic acid |
| 285 | O=C(C=Cc1c[nH]cn1)N1CCCCC1 [X, N-[3-(1H-Imidazol-4-yl)-1-oxoprop-2-enyl]piperidine] | – |
| – | COC(=O)/C=C/c1cn(C(=O)C=Cc2ccc(OC)cc2)cn1 [XI, Amide of paramethoxycinnamic acid and the methyl ester of trans-urocanic acid] | absorbing UV-A and UV-B radiation simultaneously ([1]; in words): capable of absorbing UV-A and UV-B radiation simultaneously |
| – | O=C(O)/C=C/c1c[nH]cn1 [urocanic acid] | passage into the blood [4]: passage into human blood |
| 309 | Amide of paramethoxycinnamic acid and the methyl ester of oxidized qlutathione [IX] | – |
